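Five compound concentrations were applied to cells in 96-well plates for 48 hours; endpoints were derived by simple linear interpolation of the resulting dose-response curve. Here, GI50 denotes the concentration required for 50% inhibition of growth.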 Activity calls are given as the source filed them. Rule as the data show it: active = GI50 up to about 1.1 µM and inactive = higher. Bounds are passed on as bounds.

Some test systems named below: ACHN; CAKI-1; COLO 205; HCC 2998; HCT-116; Hs-578T; K562; MDA-MB-231; NCI-H226; NCI-H23; NCI-H522; NCI/ADR-RES; RPMI-8226; SF-539; SK-MEL-5; SN12C; SW-620; TK-10; UO-31; A498.
Common to all, as to assay: growth of human tumour cells (NCI), 48 h

On to `c1ccc(/N=C2\c3ccccc3CN2c2ccccc2)cc1`, for which the GI50 with ACHN, with CAKI-1, in the experiment on COLO 205, with HCC 2998, with HCT-116 and in the experiment on Hs-578T was > 100 µM (inactive) in each case. Further, the GI50 with K562, in the experiment with MDA-MB-231, in the experiment with NCI-H226, in the experiment on NCI-H23, with NCI-H522 and in the experiment with NCI/ADR-RES was > 100 µM (inactive) each time. Further, the GI50 in the experiment on RPMI-8226, with SF-539, with SK-MEL-5, in the experiment with SN12C, in the experiment with SW-620 and in the experiment with TK-10 was > 100 µM (inactive) throughout. In addition, the GI50 in the experiment on UO-31 is > 100 µM (inactive).
As for `O/N=C1\Nc2ccccc2OCc2cc(Br)c(Br)cc2COc2ccccc2N\C1=N/O`, the GI50 in the experiment on A498 was 17.5 µM (inactive); with ACHN it was 5.97 µM (inactive); in the experiment on CAKI-1 it was 12.9 µM (inactive); with COLO 205, 7.08 µM (inactive); with HCC 2998, 7.71 µM (inactive); in the experiment on HCT-116, 6.12 µM (inactive). The GI50 in the experiment with Hs-578T is 31.7 µM (inactive); in the experiment on K562, 4.85 µM (inactive); in the experiment on MDA-MB-231 it was 14.8 µM (inactive); with NCI-H226 it was 21.5 µM (inactive); in the experiment on NCI-H23 it was 13.8 µM (inactive); with NCI-H522, 6.43 µM (inactive). Besides, the GI50 in the experiment on NCI/ADR-RES was 20.2 µM (inactive); in the experiment on RPMI-8226 it was 10.8 µM (inactive); in the experiment with SK-MEL-5, 12.9 µM (inactive); in the experiment with SN12C, 11.9 µM (inactive); with SW-620, 11.8 µM (inactive); in the experiment with TK-10, 25 µM (inactive). In addition, the GI50 with UO-31 is 19.1 µM (inactive).
For the compound `CCC[C@H](O)[C@@H](CNc1cc(NC(C)=O)nc(NC(C)=O)n1)N(Cc1ccccc1)Cc1ccccc1`, the GI50 in the experiment with A498 was 30.8 µM (inactive); with ACHN, 19.8 µM (inactive); in the experiment with CAKI-1, 18.2 µM (inactive); with COLO 205 it was 26.3 µM (inactive); with HCC 2998, 76.4 µM (inactive); in the experiment with HCT-116, 16.6 µM (inactive). Further, the GI50 is 14 µM (inactive) in the experiment with Hs-578T; > 100 µM (inactive) with K562; 49.9 µM (inactive) in the experiment with MDA-MB-231; 14.3 µM (inactive) with NCI-H226; 17.1 µM (inactive) in the experiment on NCI-H23; 8.75 µM (inactive) in the experiment with NCI-H522. In addition, the GI50 in the experiment on NCI/ADR-RES is 19.3 µM (inactive); in the experiment with RPMI-8226, 46.2 µM (inactive); in the experiment on SK-MEL-5, 20.9 µM (inactive); in the experiment with SN12C, 41.3 µM (inactive); in the experiment with SW-620 it was > 100 µM (inactive); in the experiment with TK-10 it was 20.3 µM (inactive). In the experiment with UO-31, the GI50 is 18.1 µM (inactive).
Regarding `Cc1cc2c(cc1C)C(=O)C1(C2)Cc2c(C)ccc(C)c2C1=O` (stereo not given), the GI50 in the experiment with ACHN is > 100 µM (inactive); in the experiment on CAKI-1, > 100 µM (inactive); in the experiment on COLO 205, > 100 µM (inactive); in the experiment on HCC 2998 it was > 100 µM (inactive); with HCT-116 it was > 100 µM (inactive); in the experiment with Hs-578T, 84.5 µM (inactive). Further, the GI50 with K562, in the experiment with MDA-MB-231, with NCI-H226, in the experiment on NCI-H522, with NCI/ADR-RES and with RPMI-8226 was > 100 µM (inactive) in each case. Further, the GI50 in the experiment on SF-539, with SK-MEL-5, in the experiment with SN12C, in the experiment with SW-620, in the experiment with TK-10 and in the experiment on UO-31 was > 100 µM (inactive) throughout.
As for `C[C@]12CCC3c4ccc(O)cc4CC[C@H]3C1CC(=O)N(CCN1CCCC1)C2=O` (stereo not given in full), the GI50 with A498, in the experiment with ACHN, with CAKI-1, in the experiment with COLO 205, with HCC 2998 and with HCT-116 was > 10 µM (inactive) in each case. In addition, the GI50 in the experiment with Hs-578T, in the experiment on K562, with MDA-MB-231, in the experiment on NCI-H226, in the experiment on NCI-H23 and with NCI/ADR-RES was > 10 µM (inactive) in each case. The GI50 in the experiment on RPMI-8226, in the experiment with SF-539, in the experiment with SK-MEL-5, with SN12C, in the experiment with SW-620 and in the experiment with TK-10 was > 10 µM (inactive) throughout. Further, the GI50 with UO-31 is > 10 µM (inactive).
Consider `CC(C)CC(=O)NC(Nc1ccc(S(=O)(=O)Nc2ncccn2)cc1)(C(F)(F)F)C(F)(F)F`, for which the GI50 in the experiment on ACHN, in the experiment on CAKI-1, with COLO 205, with HCC 2998, in the experiment on HCT-116 and with Hs-578T was > 100 µM (inactive) throughout. The GI50 with K562, in the experiment with MDA-MB-231, in the experiment on NCI-H226, in the experiment on NCI-H23, in the experiment on NCI-H522 and with NCI/ADR-RES was > 100 µM (inactive) throughout. For the same compound, the GI50 in the experiment on RPMI-8226, in the experiment on SF-539, in the experiment on SK-MEL-5, in the experiment with SN12C, in the experiment on SW-620 and in the experiment with UO-31 was > 100 µM (inactive) throughout.
As for `CC[C@@]1(O)CC(OC2CC(N3CCOCC3)C(O)C(C)O2)c2c(O)c3c(c(O)c2[C@H]1O)C(=O)c1cccc(O)c1C3=O` (stereo not given in full), the GI50 is 0.191 µM (active) in the experiment with A498; 0.0359 µM (active) in the experiment on ACHN; 0.0847 µM (active) in the experiment on COLO 205; 0.223 µM (active) with HCC 2998; 0.0519 µM (active) with HCT-116; 0.348 µM (active) in the experiment on Hs-578T. The GI50 with K562 was 0.112 µM (active); with MDA-MB-231 it was 0.348 µM (active); with NCI-H226, 0.0893 µM (active); in the experiment on NCI-H23, 0.175 µM (active); in the experiment with NCI-H522, 0.166 µM (active); in the experiment on NCI/ADR-RES it was 0.145 µM (active). The GI50 in the experiment on RPMI-8226 is 0.0897 µM (active); with SF-539, 0.103 µM (active); in the experiment on SK-MEL-5, 0.0966 µM (active); in the experiment on SN12C, 0.0667 µM (active); in the experiment on SW-620 it was 0.0469 µM (active); with TK-10 it was 0.452 µM (active).
As for `CCOC(=O)C1(C#N)C(C#N)(C#N)C1(C#N)C#N`, the GI50 in the experiment with A498, in the experiment with ACHN, with CAKI-1, with COLO 205, in the experiment with HCC 2998 and in the experiment with HCT-116 was > 100 µM (inactive) in each case. The GI50 in the experiment on Hs-578T, in the experiment on K562, with MDA-MB-231, in the experiment with NCI-H226, in the experiment with NCI-H23 and with NCI-H522 was > 100 µM (inactive) in each case. Also, the GI50 with NCI/ADR-RES, in the experiment on RPMI-8226, in the experiment on SK-MEL-5, in the experiment with SN12C, in the experiment on SW-620 and in the experiment on TK-10 was > 100 µM (inactive) throughout. Moreover, the GI50 with UO-31 is > 100 µM (inactive).
For the compound `C[N+]12C=CC=C1C(N1CCCC1)c1sc(-c3ccc(Cl)cc3)cc12` (stereo not given), the GI50 was 18.8 µM (inactive) in the experiment with A498; 46 µM (inactive) in the experiment with ACHN; > 100 µM (inactive) in the experiment with CAKI-1; 16.9 µM (inactive) in the experiment with COLO 205; 15.7 µM (inactive) in the experiment on HCC 2998; 16.1 µM (inactive) in the experiment on HCT-116. The GI50 in the experiment on Hs-578T was 22.1 µM (inactive); in the experiment on MDA-MB-231, 18.3 µM (inactive); in the experiment on NCI-H226 it was 17 µM (inactive); in the experiment on NCI-H522 it was 10.4 µM (inactive); in the experiment with NCI/ADR-RES, 36.9 µM (inactive); with RPMI-8226, 10.6 µM (inactive). Also, the GI50 was 17.9 µM (inactive) in the experiment on SK-MEL-5; 13.7 µM (inactive) in the experiment on SN12C; 15.9 µM (inactive) in the experiment with SW-620; 19.6 µM (inactive) with TK-10; 33 µM (inactive) in the experiment on UO-31.
Take `O=C1c2ccccc2C(=O)c2c1c1cc(O)ccc1n2Cc1ccc(Cl)cc1Cl`: the GI50 with A498 was 17.2 µM (inactive); with CAKI-1, 3.9 µM (inactive); in the experiment with COLO 205, 15.1 µM (inactive); in the experiment with HCT-116, 6.18 µM (inactive); with Hs-578T, 14 µM (inactive); in the experiment on K562, 32.2 µM (inactive). For the same compound, the GI50 was 3.85 µM (inactive) in the experiment with MDA-MB-231; 11.5 µM (inactive) in the experiment on NCI-H226; 7.23 µM (inactive) in the experiment on NCI-H23; 3.08 µM (inactive) in the experiment with NCI/ADR-RES; 7.18 µM (inactive) with RPMI-8226; 3.97 µM (inactive) in the experiment with SF-539. The GI50 in the experiment on SK-MEL-5 is 17.2 µM (inactive); in the experiment on SN12C, 3.88 µM (inactive); with SW-620 it was 8.17 µM (inactive); with TK-10, 9.29 µM (inactive); in the experiment with UO-31 it was 19.1 µM (inactive).
In the case of `COC(=O)c1c2c(cc3c1CC1(Cc4cc5c(c(C(C)=O)c4C1)CCCC5)C3)CCCC2` (stereo not given), the GI50 in the experiment with A498 is > 100 µM (inactive); in the experiment on ACHN, 44.1 µM (inactive); in the experiment on COLO 205, > 100 µM (inactive); in the experiment with HCC 2998, > 100 µM (inactive); with HCT-116, 60 µM (inactive); with Hs-578T it was > 100 µM (inactive). Moreover, the GI50 in the experiment with K562 was 23.4 µM (inactive); in the experiment with MDA-MB-231 it was > 100 µM (inactive); with NCI-H226, > 100 µM (inactive); with NCI-H23, > 100 µM (inactive); with NCI-H522, > 100 µM (inactive); in the experiment with NCI/ADR-RES, > 100 µM (inactive). Further, the GI50 in the experiment on RPMI-8226 was 29.6 µM (inactive); in the experiment with SF-539, > 100 µM (inactive); in the experiment on SK-MEL-5 it was 34.1 µM (inactive); in the experiment with SN12C it was > 100 µM (inactive); in the experiment on TK-10, > 100 µM (inactive).

Source of the values: ChEMBL document CHEMBL1201862, “PubChem BioAssay data set” (2004).
